# Measurements published in patent publication US11419918B2, “Treatment of biliary cirrhosis based on oxyntomodulin analogue GLP-1R/GCGR dual-target agonist peptide” (Shenzhen Turier Biotech Co., Ltd., priority 2017, dated 2022).
# Numbered stars: 1 amine (or outer) side, 2 acyl side, 3 side chain; on linkers, the order of the positions; unused ones are H or OH. Square brackets hold non-standard residues; d marks the D form. Primed or numbered codes have the meaning given here. Side chains are listed from the residue outwards. Ends that are not written are not given here. * marks the point of attachment. C18 diacid = O=C(O)CCCCCCCCCCCCCCCCC(=O)*; γGlu = O=C(O)[C@H](CCC(=O)[*:2])N[*:1]; Stearoyl = CCCCCCCCCCCCCCCCCC(=O)*; Palmitoyl = CCCCCCCCCCCCCCCC(=O)*; Nle = CCCC[C@H](N)C(=O)O; PEG2′ = not defined here; Aib = CC(C)(N)C(=O)O
# What was measured:
# [1] = system: human hepatic stellate cells (LX-2); test: In vitro inhibition of hepatic fibrosis: expression of activation marker α-SMA in LX-2 cells (Western Blot, β-actin internal reference); type: cell-based; details: 10.0 μM, 48 hours, negative control (PBS) = 100%
# Outline: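 LX-2 cells grown in DMEM high glucose + 10% FBS to ~70% confluence, then exposed to polypeptides (in PBS) at different doses for 48 h; PBS-only negative control. α-SMA quantified by Western blot densitometry normalised to β-actin, expressed relative to control set at 100%.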
# [2] = system: BDL-induced cholestasis hepatic fibrosis in rats; test: Bile duct ligation (BDL)-induced hepatic fibrosis in rats (biliary cirrhosis rat model); type: in vivo, SD rats; details: 50 μg/kg subcutaneous every two days, 14 days
# Procedure: 1. Experimental Drugs: polypeptide compounds 3, 6, 7, 10, 17, 20, 37, 38, 39, 40, 44, 46, Obeticholic Acid (Abbr. OCA, CAS:459789-99-2, purchased from Zhejiang Warrant Pharmaceutical Co., Ltd.) and Liraglutide. Saving condition was −20° C.
# 128 male SD rats with body weight of 200-230 g were randomly divided into sixteen groups, which were respectively:
# SD rats with body weight of 200-230 g at SPF level were provided by Lanzhou University Laboratory Animal Center. After rats were quarantined in the room (SPF environment) for one week, model rat and rat in sham-operated group were subject to intraperitoneal injection and anesthesia with 0.6% pentobarbital sodium solution, and operation was performed on a super clean bench after anesthesia. Bilateral ligation was conducted on model rat after the common bile duct was separated, and ligation was not conducted on rat in sham-operated group, but only the common bile duct was separated. Administration was started from the next day of the operation.
# Administration was started from the first day of the operation, and subcutaneous injection of compounds 3, 6, 7, 10, 17, 20, 37, 38, 39, 40, 44, 46 and Liraglutide with 50 μg/kg was performed every two days; intraperitoneal injection for the Obeticholic Acid administration group with 7.5 mg/kg was performed every day; as for the normal saline group, injection was performed every day. During the administration, changes in vital signs of rats were observed every day.
# After the end of two weeks of administration cycle (14 days), the rats were killed to collect materials for subsequent biological determination experiments. The livers were taken out for HE dye, Sirius Red dye and IHC dye. Image-pro plus and Graph pad software were used for statistics.
Substance,"Relative expression of α-SMA (α-SMA/β-actin, %) [1] [%]",ALT in the serum (FIG. 6) [2],"BDL-induced hepatic fibrosis and inflammation (HE, Sirius Red, IHC sections) [2]","collagenous fiber deposition in liver (Sirius Red dyed sections, FIGS. 2, 4) [2]",content of hydroxyproline of the liver (FIG. 7) [2],"α-SMA in liver (IHC dyed sections, FIGS. 3, 5) [2]"
His-(D-Ser)-Gln-Gly-Thr-Phe-Thr-Ser-Asp-Tyr-Ser-Lys-Tyr-Leu-Asp-Aib-Lys(PEG2-PEG2-CO(CH2)16CO2H)-Arg-Ala-Gln-Asp-Phe-Val-Gln-Trp-Leu-Met-Asn-Thr-Gly-Gly-Pro-Ser-Ser-Gly-Ala-Pro-Pro-Pro-Ser-NH2 (H[dS]QGTFTSDYSKYLD[Aib]K([PEG2′-PEG2′-C18 diacid])RAQDFVQWLMNTGGPSSGAPPPS-NH2) [Compound 10],39.49,significantly inhibit,significantly reduce,significantly inhibit,significantly inhibit,significantly inhibit
His-(D-Ser)-Gln-Gly-Thr-Phe-Thr-Ser-Asp-Tyr-Ser-Lys(PEG2-PEG2-γGlu-CO(CH2)16CO2H)-Lys-Leu-Asp-Aib-Arg-Arg-Ala-Gln-Asp-Phe-Val-Gln-Trp-Leu-Met-Asn-Thr-Gly-Gly-Pro-Ser-Ser-Gly-Ala-Pro-Pro-Pro-Ser-NH2 (H[dS]QGTFTSDYSK([PEG2′-PEG2′-γGlu-C18 diacid])KLD[Aib]RRAQDFVQWLMNTGGPSSGAPPPS-NH2) [Compound 20],28.39,significantly inhibit,significantly reduce,significantly inhibit,significantly inhibit,significantly inhibit
His-(D-Ser)-Gln-Gly-Thr-Phe-Thr-Ser-Asp-Tyr-Ser-Lys-Tyr-Leu-Asp-Lys(PEG2-PEG2-γGlu-CO(CH2)14CH3)-Arg-Arg-Ala-Gln-Asp-Phe-Val-Gln-Trp-Leu-Nle-Asn-Thr-Gly-Gly-Pro-Ser-Ser-Gly-Ala-Pro-Pro-Pro-Ser-NH2 (H[dS]QGTFTSDYSKYLDK([PEG2′-PEG2′-γGlu-Palmitoyl])RRAQDFVQWL[Nle]NTGGPSSGAPPPS-NH2) [Compound 37],29.95,significantly inhibit,significantly reduce,significantly inhibit,significantly inhibit,significantly inhibit
His-(D-Ser)-Gln-Gly-Thr-Phe-Thr-Ser-Asp-Tyr-Ser-Lys(PEG2-PEG2-CO(CH2)16CH3)-Lys-Leu-Asp-Aib-Arg-Arg-Ala-Gln-Asp-Phe-Val-Gln-Trp-Leu-Met-Asn-Thr-Gly-Gly-Pro-Ser-Ser-Gly-Ala-Pro-Pro-Pro-Ser-NH2 (H[dS]QGTFTSDYSK([PEG2′-PEG2′-Stearoyl])KLD[Aib]RRAQDFVQWLMNTGGPSSGAPPPS-NH2) [Compound 3],32.25,significantly inhibit,significantly reduce,significantly inhibit,significantly inhibit,significantly inhibit
His-(D-Ser)-Gln-Gly-Thr-Phe-Thr-Ser-Asp-Lys(PEG2-PEG2-CO(CH2)14CH3)-Ser-Lys-Tyr-Leu-Asp-Aib-Arg-Arg-Ala-Gln-Asp-Phe-Val-Gln-Trp-Leu-Leu-Asn-Thr-Gly-Gly-Pro-Ser-Ser-Gly-Ala-Pro-Pro-Pro-Ser-NH2 (H[dS]QGTFTSDK([PEG2′-PEG2′-Palmitoyl])SKYLD[Aib]RRAQDFVQWLLNTGGPSSGAPPPS-NH2) [Compound 44],39.19,significantly inhibit,significantly reduce,significantly inhibit,significantly inhibit,significantly inhibit
His-(D-Ser)-Gln-Gly-Thr-Phe-Thr-Ser-Asp-Tyr-Ser-Lys-Tyr-Leu-Asp-Lys(PEG2-PEG2-γGlu-CO(CH2)14CH3)-Arg-Arg-Ala-Gln-Asp-Phe-Val-Gln-Trp-Leu-Leu-Asn-Thr-Gly-Gly-Pro-Ser-Ser-Gly-Ala-Pro-Pro-Pro-Ser-NH2 (H[dS]QGTFTSDYSKYLDK([PEG2′-PEG2′-γGlu-Palmitoyl])RRAQDFVQWLLNTGGPSSGAPPPS-NH2) [Compound 40],37.55,significantly inhibit,significantly reduce,significantly inhibit,significantly inhibit,significantly inhibit
His-(D-Ser)-Gln-Gly-Thr-Phe-Thr-Ser-Asp-Tyr-Ser-Lys-Tyr-Leu-Asp-Ser-Lys(PEG2-PEG2-γGlu-CO(CH2)16CO2H)-Ala-Ala-His-Asp-Phe-Val-Glu-Trp-Leu-Leu-Arg-Ala-NH2 (H[dS]QGTFTSDYSKYLDSK([PEG2′-PEG2′-γGlu-C18 diacid])AAHDFVEWLLRA-NH2) [Compound 17],35.38,significantly inhibit,significantly reduce,significantly inhibit,significantly inhibit,significantly inhibit
